“Also recorded” adds a separate entry of the source. [FANA-N] = 2'-fluoro-arabino (N: the base); {32P} = 5'-32P radiolabel (phosphate); {FAM} = fluorescein (FAM) label
Tests used:
SVPE = conditions: literature; cited from earlier work
[1] = test system: phosphodiesterase I from Crotalus adamanteus venom
[2] = Chemical stability assay, alkaline conditions (1 M NaOH); type: physicochemical; conditions: 65° C.
From the text: The same protocol was used to monitor alkaline stability.

[3] = Chemical stability assay in pepsin-free simulated gastric fluid (SGF); conditions: SGF pH 1.25, 37° C.
Protocol: Pepsin-free simulated gastric fluid (SGF) was prepared by autoclaving a solution of NaCl (200 mg) in nanopure water (99 mL) followed by addition of 6N HCl (0.7 mL, pH 1.25). TNA (30 pmol), DNA (45 pmol), and RNA (5 pmol) were added to SGF (20 μL) and incubated for the specified time (up to 72 hours). Following the incubation, the reaction mixture was neutralized by the addition of 1N NaOH and the solutions were stored at −20° C. until the time course was complete. The volume was then reduced to 10 μL, mixed with 10 μL of loading buffer (8 M Urea, 5 mM Tris.HCl, 20 mM EDTA, pH 7.5), and the oligonucleotides were analyzed by denaturing PAGE and imaged.
We compared the chemical stability of the all-TNA strand to DNA and RNA oligonucleotides of identical length and similar sequence. […] For these experiments, pepsin-free simulated gastric fluid (SGF, pH 1.25) and 1 M NaOH were used to maintain parity with previous antisense studies^26. For the acidic regime, the TNA, DNA, and RNA samples were incubated in SGF for 72 hours at 37° C.

2′-fluoro-arabino nucleic acid (AAAACCCACACCACCA; all [FANA-N], backbone and methylation of C not given here)
t1/2 in human serum: < 3 h
degradation in the presence of SVPE (SVPE): degrade in minutes

3′-tttCtCtCtCtt-2′ [size-matched TNA/DNA hybrid]
products of SVPE treatment (FIG. 2) [1]: series of shorter truncated products

5′-32P-UCUCUCUCUCUC-3′ (RNA, 5' {32P}, backbone not given here)
time within which the sample is degraded in 1 M NaOH [2]: ≤ 30 min
sample degraded in SGF in the first 12 hours ([3]; first 12 hours): 85%

5′-Fam-CCCCCCCCCCCC-3′ (5' {FAM}, sugars by position and backbone not given here) [DNA]
time after which trace amounts of the sample are still visible in 1 M NaOH [2]: 12 h
stability against snake venom phosphodiesterase (SVPE) [1]: digested
strand stability in simulated gastric fluid after 72 hours (3 days) ([3]; 72 hours): stable; also recorded: remained intact
